The nature of this series: Equilibration with solvents at 50° C. for 1 week. On the procedure: About 50 mg of drug substance was equilibrated in minimal amount of solvent at 50° C. for 1 week with a stirring plate (Table 32). Obtained suspension was filtered. The solid part (wet cake) was investigated by XRPD. When differences were observed, additional investigations were performed (e.g. DSC, TGA. FT-IR, PLM/SEM, etc.).

Turning to `CCC(=O)[O][Mn][O]C(=O)CC.c1cc2nc(c1)CN[C@H]1CCCC[C@@H]1NCCN[C@H]1CCCC[C@@H]1NC2` [API], the Comments result runs as follows: (Heptane) “API degradation”; (Heptane/Acetone, 80/20) “API degradation”; (Heptane/EtOAc, 80/20) “API degradation”; (Heptane/EtOH, 80/20) “API was soluble in the solvent”; (Heptane/IPA, 80/20) “API was soluble in the solvent”; (MTBE) “API degradation”. Besides, the Comments entry is recorded as “API degradation” (MTBE/Acetone, 80/20); “API degradation” (MTBE/EtOAc, 80/20); “API was soluble in the solvent” (MTBE/EtOH, 80/20); “API was soluble in the solvent” (MTBE/IPA, 80/20). This molecule registered a purity (Heptane) of 94.65%; a purity (Heptane/Acetone, 80/20) of 95.63%; a purity (Heptane/EtOAc, 80/20) of 85.84%; a purity (MTBE) of 92.26%; a purity (MTBE/Acetone, 80/20) of 93.80%; a purity (MTBE/EtOAc, 80/20) of 87.67%.

Source of the values: US20250073244A1, “CRYSTALLINE FORMS OF PENTAAZA MACROCYCLIC RING COMPLEX” (Galera Labs, LLC, priority 2023, published 2025).
